The numbers were not newly measured in patent US7678393B1, “Mixture composition and method useful for topical and internal application” (DB Laboratories LLC, priority 2006, dated 2010), which cites them from elsewhere.

Where only a bound is given, the exact number is not on record here.

The test system of data set [1] is F0F1-ATPase/ATP synthase. The settings on record: micromolar concentrations.
In data set [2] the test system is cyclooxygenase-2 (COX-2). Conditions: LPS stimulation.
Data set [3] relates to iNOS. The settings on record: LPS stimulation.
Data set [4] relates to plasma lipoproteins.
The target in data set [5] is Interlukin-2 (IL-2) (Homo sapiens, UniProt P60568). The settings on record: by direct binding of IL-2.
Chain of Interlukin-2 (IL-2) (P60568 21-153, species assumed): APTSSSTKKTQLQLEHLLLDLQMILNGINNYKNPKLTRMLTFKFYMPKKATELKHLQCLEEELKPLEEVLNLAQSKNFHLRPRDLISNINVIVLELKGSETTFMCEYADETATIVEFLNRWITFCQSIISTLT

As to `O=C(OC[C@H]1O[C@@H](OC(=O)c2cc(O)c(O)c(OC(=O)c3cc(O)c(O)c(O)c3)c2)[C@H](OC(=O)c2cc(O)c(O)c(OC(=O)c3cc(O)c(O)c(O)c3)c2)[C@@H](OC(=O)c2cc(O)c(O)c(OC(=O)c3cc(O)c(O)c(O)c3)c2)[C@@H]1OC(=O)c1cc(O)c(O)c(OC(=O)c2cc(O)c(O)c(O)c2)c1)c1cc(O)c(O)c(OC(=O)c2cc(O)c(O)c(O)c2)c1` [tannic acid], the “inhibition of F0F1-ATPase/ATP synthase” value in data set [1] is “showed inhibition at micromolar concentrations”.

As to `O=C(O[C@@H]1Cc2c(O)cc(O)cc2O[C@@H]1c1cc(O)c(O)c(O)c1)c1cc(O)c(O)c(O)c1` [(−)epigallocatechin-3-gallate], in data set [2], the “COX-2 activation by LPS” value was “inhibited”. For the same molecule, in data set [3], the “iNOS activation by LPS” value is on record as “inhibited”. In addition, in data set [1], the “inhibition of F0F1-ATPase/ATP synthase” value is “showed inhibition at micromolar concentrations”.

Turning to Lipoteichoic acid [LTA], the “bound in plasma lipoproteins, efficiency” value in data set [4] (plasma) is recorded as more than 95%. In data set [4] (plasma lipoproteins), the “distribution in HDL” value is listed as 68%±10%, the “distribution in LDL” value is 28%±8% and the “distribution in VLDL” value is listed as 4%±5%. Moreover, in data set [5], the Interlukin-2 function result was “inhibits”.

For the molecule `O=c1c(O)c(-c2ccc(O)cc2)oc2cc(O)cc(O)c12` [kaempferol], the “COX-2 activation by LPS” value in data set [2] is listed as “inhibited”. Moreover, the “iNOS activation by LPS” value in data set [3] is recorded as “inhibited”. Also, the “inhibition of F0F1-ATPase/ATP synthase” value in data set [1] is “showed inhibition at micromolar concentrations”.

Turning to `O=c1cc(-c2ccc(O)cc2)oc2cc(O)cc(O)c12` [apigenin], in data set [2], the “COX-2 activation by LPS” value is recorded as “inhibited”. Besides, the “iNOS activation by LPS” value in data set [3] is recorded as “inhibited”.

In the case of `Oc1ccc(/C=C/c2cc(O)cc(O)c2)cc1` [resveratol], the “inhibition of F0F1-ATPase/ATP synthase” value in data set [1] is “showed inhibition at micromolar concentrations”.
